Test results: patent US20260273107A1, “COMPOUND PHARMACEUTICAL PREPARATION CONTAINING OIL COMPONENT COMPRISING POLYOXYETHYLENE STRUCTURE” (CHUGAI SEIYAKU KABUSHIKI KAISHA, priority 2022, published 2026)
≈ marks a conversion by molar mass, not a printed value. Where two headings read alike, the source gives them in different places. Bridge positions count the residues as written; N and C are the ends. Square brackets hold non-standard residues; d marks the D form. Peptide text beside a SMILES is read from it. * marks the point of attachment. hPhe(3,5-F2-4-CF3) = N[C@@H](CCc1cc(F)c(C(F)(F)F)c(F)c1)C(=O)O; hPhe(3-Cl-4-CF3) = N[C@@H](CCc1ccc(C(F)(F)F)c(Cl)c1)C(=O)O; NMePhe(4-Me) = CN[C@@H](Cc1ccc(C)cc1)C(=O)O; NMeGly(cPent) = CN[C@H](C(=O)O)C1CCCC1; NMeCha = CN[C@@H](CC1CCCCC1)C(=O)O; Hyp = O=C(O)[C@@H]1C[C@@H](O)CN1; NMeF = CN[C@@H](Cc1ccccc1)C(=O)O; NMeI = CC[C@H](C)[C@H](NC)C(=O)O; NMeD = CN[C@@H](CC(=O)O)C(=O)O; NMeL = CN[C@@H](CC(C)C)C(=O)O; NMeV = CN[C@H](C(=O)O)C(C)C; NMeA = CN[C@@H](C)C(=O)O; Piperidide = C1CCN(*)CC1; Ac5c = NC1(C(=O)O)CCCC1; Aze = O=C(O)[C@@H]1CCN1; Sar = CNCC(=O)O; tBu = CC(C)(C)*

Key:
[1] = Evaluation of Caco-2 membrane permeability; assay type: in vitro ADME; conditions: human, Apical FaSSIF/HBSS pH 6.0 to Basal HBSS 4% BSA pH 7.4, 180 minutes, after 18 to 24 hours preincubation, read-out: Caco2 (Papp)
Experimental: The permeability coefficient (Caco-2 Papp (cm/sec)) is calculated using a numerical expression 1.
[formula] • where dQ/dt is the permeation rate of the drug (amount of drug appearing on the Basal side per unit time), S is the total cell surface area, and C1 (0) is the concentration of drug added on the Apical side.
Caco-2 cells were cultured on 96-well Transwell for 3 weeks, then DMEM, FaSSIF (1% DMSO), and the compound were added to the Apical side, DMEM was added to the Basal side, and the cells were preincubated under 5% CO2 at 37° C. with shaking at 80 rpm for 18 to 24 hours. After the preincubation, the preincubation solutions on the Apical side and Basal side were sucked off and washed, a FaSSIF/HBSS buffer solution (1% DMSO) (pH 6.0) containing the compound was added to the Apical side, a HBSS buffer solution (4% BSA) (pH 7.4) was added to the Basal side, and measurement of membrane permeability was started. Each well was shaken under 5% CO2 at 37° C. and 80 rpm, and at 180 minutes after the start of shaking, a sample on the Basal side was collected, and the permeation amount was measured by LC/MS. From the permeation amount, the membrane permeability coefficient (Papp) was calculated. Note that the description “Caco-2 (cm/sec)” in the column in the table herein is used synonymously with “Papp (cm/sec)”.

[2] = Solubility of cyclic peptide compound in 50 mM phosphate buffer solution (pH 6.5), 37° C. (Example 3-3); assay type: physicochemical; conditions: shaking 22 to 24 hours, read-out: solubility in 50 mM phosphate buffer solution (PPB)
Experimental: Evaluation of the solubility of the cyclic peptide compound was performed. To lyophilized powder of the compound, a 50 mM phosphate buffer solution (PPB: Phosphate buffer, pH 6.5) was added, and after shaking (at 37° C., 1800 rpm, for 22 to 24 hours), the mixed solution was filtered through a filter, and the compound concentration of the filtrate was measured by LC/MS/MS. Solubility was calculated from the measured compound concentration. The solubilities of the compounds 3, 4, 6, 7, and 8 were 11 μg/mL, 1 μg/mL, 1 μg/mL, 15 μg/mL, and 5 μg/mL, respectively.

[3] = Solubility in aqueous solution containing 0.3% or 1% Cremophor EL (Example 3-3); assay type: physicochemical; conditions: 25° C., 22 to 24 hours
Experimental: Evaluation of the solubility of the cyclic peptide compound in the presence of a surfactant was performed. To lyophilized powder of the compound, an aqueous solution containing 0.3% or 1% Cremophor EL (CreEL) was added, and after shaking (at 25° C., 1000 rpm, for 22 to 24 hours), the mixed solution was filtered through a filter, and the compound concentration of the filtrate was measured by LC/UV. Solubility (μg/mL) was calculated from the measured compound concentration.

[4] = In vitro solubility evaluation in 50 mM phosphate buffer solution (PPB, pH 6.5), room temperature (Example 2-1); assay type: physicochemical; conditions: 50 mM phosphate buffer pH 6.5, room temperature, shaking 24 hours, no surfactant; read-out: solubilities, PPb
Experimental: (§1) To lyophilized powder of the compound, a 50 mM phosphate buffer solution (PPB: Phosphate buffer, pH 6.5) was added, and after shaking (at room temperature, 1800 rpm, for 24 hours), the mixed solution was filtered through a filter, and the compound concentration of the filtrate was measured by LC/MS/MS. […] To the compound powder, Cremophor EL (CreEL) (manufactured by Sigma-Aldrich Co., Ltd., “Kolliphor EL”, generic name: polyoxyethylene castor oil, average number of moles of ethylene oxide added 35), Vitamin E TPGS (manufactured by Sigma-Aldrich Co., Ltd.), an aqueous solution containing 1% TW80 (manufactured by Nacalai Tesque, Inc.), an aqueous solution containing 1.5% Ploxamer 188 (manufactured by BASF SE), or an aqueous solution containing 0.5% Triton X-100 was added, the mixed solution was stirred (at room temperature, for 20 hours) with a stirrer, and then filtered through a filter, and the compound concentration of the filtrate was measured by LC/UV. Solubility (μg/mL) was calculated from the measured compound concentration. […] From the above, CreEL and Vitamin E TPGS were selected as substrates that improve solubility independently of compounds, and evaluation of oral absorbability was performed.

[5] = Solubility in the presence of a surfactant (Example 2-1); assay type: physicochemical; conditions: room temperature, stirred 20 hours
Experimental: as §1

[6] = 0.3% Cremophor EL aqueous solution, read-out: solubility, 0.3% Cremophor EL
[7] = 1% Cremophor EL aqueous solution, read-out: solubility, 1% Cremophor EL

SMILES	Papp A→B at 180 min [1]	solubility [2]	solubility [3, 6]	solubility [3, 7]	solubility at 24 h [4]	solubility at 20 h ([5]; 0.5% Triton X-100 aqueous solution, read-out: solubilities, TritonX-100 (0.5% aqueous solution))	solubility at 20 h ([5]; 1% Cremophor EL aqueous solution, read-out: solubilities, CreEL (1% aqueous solution))	solubility at 20 h ([5]; 1% TW80 aqueous solution, read-out: solubilities, TW80 (1% aqueous solution))	solubility at 20 h ([5]; 1% Vitamin E TPGS aqueous solution, read-out: solubilities, VitaminE TPGS (1% aqueous solution))	solubility at 20 h ([5]; 1.5% Poloxamer 188 aqueous solution, read-out: solubilities, Poloxamer 188 (1.5% aqueous solution))
CC(C)C[C@@H]1NC(=O)[C@H](Cc2ccccc2)N(C)C(=O)[C@H](COC(C)(C)C)NC(=O)[C@H](Cc2ccccc2)N(C)C(=O)[C@H](C)N(C)C(=O)[C@H](CC(C)C)N(C)C(=O)[C@@H](C)NC(=O)C[C@@H](C(=O)N2CCCCC2)NC(=O)[C@H](Cc2ccccc2)N(C)C(=O)[C@H]([C@@H](C)O)NC(=O)[C@H](CC(C)C)N(C)C1=O [Compound 4] ([dA][NMeL][NMeA][NMeF]S(tBu)[NMeF]L[NMeL]T[NMeF]D-Piperidide; lactam N-11)	1.45 ×10⁻⁶ cm/s	1 µg/mL (≈ 0.697 µM)	214 µg/mL (≈ 149 µM)	789 µg/mL (≈ 550 µM)						
CC(C)C[C@@H]1NC(=O)[C@H](Cc2ccccc2)N(C)C(=O)[C@@H](C(C)C)NC(=O)C[C@@H](C(=O)N2CCCCC2)NC(=O)[C@H](C(C)C)N(C)C(=O)[C@H](Cc2ccccc2)N(C)C(=O)[C@H](COC(C)(C)C)NC(=O)[C@H](CC(C)C)N(C)C(=O)CN(C)C(=O)[C@H]([C@@H](C)O)NC(=O)[C@H](CC(C)C)N(C)C1=O [Compound 3] ([dV][NMeF]L[NMeL]T[Sar][NMeL]S(tBu)[NMeF][NMeV]D-Piperidide; lactam N-11)	4.07 ×10⁻⁶ cm/s	11 µg/mL (≈ 7.86 µM)	101 µg/mL (≈ 72.2 µM)	395 µg/mL (≈ 282 µM)						

Continued, values first:

Papp A→B at 180 min [1]	solubility [2]	solubility [3, 6]	solubility [3, 7]	solubility at 24 h [4]	solubility at 20 h ([5]; 0.5% Triton X-100 aqueous solution, read-out: solubilities, TritonX-100 (0.5% aqueous solution))	solubility at 20 h ([5]; 1% Cremophor EL aqueous solution, read-out: solubilities, CreEL (1% aqueous solution))	solubility at 20 h ([5]; 1% TW80 aqueous solution, read-out: solubilities, TW80 (1% aqueous solution))	solubility at 20 h ([5]; 1% Vitamin E TPGS aqueous solution, read-out: solubilities, VitaminE TPGS (1% aqueous solution))	solubility at 20 h ([5]; 1.5% Poloxamer 188 aqueous solution, read-out: solubilities, Poloxamer 188 (1.5% aqueous solution))	SMILES
2.39 ×10⁻⁶ cm/s	5 µg/mL (≈ 3.43 µM)	356 µg/mL (≈ 244 µM)	1340 µg/mL (≈ 916 µM)							CCO[C@@H]1C[C@H]2C(=O)NC3(CCCC3)C(=O)N(C)[C@@H](C3CCCC3)C(=O)N(C)[C@H](C(=O)N(C)C)CC(=O)N(C)[C@@H](CC(C)C)C(=O)N[C@@H]([C@@H](C)CC)C(=O)N(C)[C@@H](C)C(=O)N3CC[C@H]3C(=O)N(C)[C@@H](CC3CCCCC3)C(=O)N(C)CC(=O)N[C@@H](CCc3cc(F)c(C(F)(F)F)c(F)c3)C(=O)N2C1 [Compound 8] ([NMeL]I[NMeA][Aze][NMeCha][Sar][hPhe(3,5-F2-4-CF3)][Hyp](Et)[Ac5c][NMeGly(cPent)][NMeD]-NMe2; lactam N-11)
5.99 ×10⁻⁶ cm/s				11 µg/mL (≈ 7.94 µM)	498 µg/mL	1050 µg/mL	707 µg/mL	1950 µg/mL	31 µg/mL	CC[C@H](C)[C@H]1C(=O)N[C@@H](COC(C)(C)C)C(=O)N(C)[C@@H](Cc2ccccc2)C(=O)N(C)[C@@H](C(C)C)C(=O)N[C@H](C(=O)N2CCCCC2)CC(=O)N(C)[C@@H](C)C(=O)N(C)[C@@H](Cc2ccccc2)C(=O)N[C@@H](CC(C)C)C(=O)N(C)[C@@H](CC(C)C)C(=O)N[C@@H]([C@@H](C)O)C(=O)N(C)CC(=O)N1C [Compound 2] ([NMeA][NMeF]L[NMeL]T[Sar][NMeI]S(tBu)[NMeF][NMeV]D-Piperidide; lactam N-11)
2.96 ×10⁻⁶ cm/s	15 µg/mL (≈ 10.6 µM)	492 µg/mL (≈ 349 µM)	1640 µg/mL (≈ 1170 µM)							CC[C@H](C)[C@@H]1NC(=O)[C@H](CC(C)C)N(C)C(=O)C[C@@H](C(=O)N(C)C)N(C)C(=O)[C@H]([C@@H](C)CC)N(C)C(=O)C2(CCCC2)NC(=O)[C@@H]2CCCN2C(=O)[C@H](CCc2ccc(C(F)(F)F)c(Cl)c2)NC(=O)CN(C)C(=O)[C@H](Cc2ccc(C)cc2)N(C)C(=O)[C@@H]2CCN2C(=O)[C@H](C)N(C)C1=O [Compound 7] ([NMeL]I[NMeA][Aze][NMePhe(4-Me)][Sar][hPhe(3-Cl-4-CF3)]P[Ac5c][NMeI][NMeD]-NMe2; lactam N-11)
